In US12240844B2 (Voronoi, Inc., priority 2019, dated 2025):

Assays:
Format in all cases: biochemical
LRRK2 = LRRK2 (Homo sapiens, UniProt Q5S007); assay: LRRK2 enzyme inhibition, ADP-Glo kinase assay; parameters: purchased Invitrogen PR8604B
Procedure: In order to evaluate the inhibitory activity of the compounds according to the present invention on LRRK2, LRRK2 (G2019S), DYRK1, CLK1 and TTK kinases, the following experiment was performed.
Example compounds were reacted with the purified human LRRK2 (Invitrogen #PR8604B) enzyme to evaluate the enzyme inhibitory ability as follows. The reaction buffer was used as the composition of 40 mM Tris-HCl pH7.4, 20 mM MgCl2, 0.5 mg/ml BSA and 50 μM DTT, and the reaction of all test materials was performed on the reaction buffer. The compound was diluted with 10 mM DMSO stock in 12 steps by a serial dilution method, and the enzyme activity was measured at the final compound concentrations of 50, 10, 2, 0.4, 0.08, 0.016, 0.0032, 0.00064, 0.000128, 0.0000256, 0.00000512 and 0.000001024 μM. In the test, the human LRRK2 (25 ng) enzyme was reacted with the purified ATP (10 μM) and an enzyme substrate ([…]) at 25° C. for 2 hours, and then the enzyme activity was identified using the in vitro ADP-Glo™ kinase assay (promega). The enzyme activity reaction liquid, an ADP-Glo reaction liquid and an enzyme potency detection solution were reacted in a ratio of 2:2:1, and the degree of inhibition of enzyme activity was measured by Luminescence. The degree of inhibition of enzyme activity according to the treatment concentrations of the respective compounds was calculated based on the fluorescence of the enzyme activity of a solvent control group that was not treated with the compound, where the concentration of each compound to inhibit enzyme activity inhibition by 50% was determined as an IC50 (nM) value and obtained using Prism (Version 5.01, GraphPad) software.
In the table below, the following designations were used for the evaluation of enzyme inhibitory ability.

human GST-CLK1 (129-end) = target: T1, human GST-CLK1 (129-end) (Homo sapiens, UniProt P49759); assay: GST-CLK1 enzyme inhibition, ADP-Glo kinase assay; settings: ATP 10 uM
T1 construct: purified human GST-CLK1 (129-end, Signalchem) enzyme; GST; purchased Signalchem
T1 sequence (P49759 129-484 limits assumed): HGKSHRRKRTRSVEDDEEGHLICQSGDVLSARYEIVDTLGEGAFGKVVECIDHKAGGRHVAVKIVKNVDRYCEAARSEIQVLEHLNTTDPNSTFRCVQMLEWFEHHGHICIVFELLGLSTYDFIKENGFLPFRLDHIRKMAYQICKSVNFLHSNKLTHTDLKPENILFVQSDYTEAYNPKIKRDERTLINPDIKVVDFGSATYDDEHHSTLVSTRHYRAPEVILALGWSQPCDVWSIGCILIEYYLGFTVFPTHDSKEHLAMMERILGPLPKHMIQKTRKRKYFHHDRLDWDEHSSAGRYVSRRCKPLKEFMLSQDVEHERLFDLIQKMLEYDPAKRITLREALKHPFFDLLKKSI
Summary of the method: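 ADP formation was read by ADP-Glo luminescence after 1 h at 25° C with 3 ng human GST-CLK1 (129-end), substrate and 10 uM ATP in Tris pH 7.4 buffer containing MgCl2, BSA and DTT. Inhibition relative to untreated solvent control gave IC50 (nM), run in triplicate.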

LRRK2 (G2019S) = LRRK2 (G2019S) (Homo sapiens, UniProt Q5S007, G2019S); assay: LRRK2 G2019S enzyme inhibition, ADP-Glo kinase assay; parameters: purchased SignalChem L10-12GG
Chain of LRRK2 (G2019S) (Q5S007 970-2527 G2019S limits assumed): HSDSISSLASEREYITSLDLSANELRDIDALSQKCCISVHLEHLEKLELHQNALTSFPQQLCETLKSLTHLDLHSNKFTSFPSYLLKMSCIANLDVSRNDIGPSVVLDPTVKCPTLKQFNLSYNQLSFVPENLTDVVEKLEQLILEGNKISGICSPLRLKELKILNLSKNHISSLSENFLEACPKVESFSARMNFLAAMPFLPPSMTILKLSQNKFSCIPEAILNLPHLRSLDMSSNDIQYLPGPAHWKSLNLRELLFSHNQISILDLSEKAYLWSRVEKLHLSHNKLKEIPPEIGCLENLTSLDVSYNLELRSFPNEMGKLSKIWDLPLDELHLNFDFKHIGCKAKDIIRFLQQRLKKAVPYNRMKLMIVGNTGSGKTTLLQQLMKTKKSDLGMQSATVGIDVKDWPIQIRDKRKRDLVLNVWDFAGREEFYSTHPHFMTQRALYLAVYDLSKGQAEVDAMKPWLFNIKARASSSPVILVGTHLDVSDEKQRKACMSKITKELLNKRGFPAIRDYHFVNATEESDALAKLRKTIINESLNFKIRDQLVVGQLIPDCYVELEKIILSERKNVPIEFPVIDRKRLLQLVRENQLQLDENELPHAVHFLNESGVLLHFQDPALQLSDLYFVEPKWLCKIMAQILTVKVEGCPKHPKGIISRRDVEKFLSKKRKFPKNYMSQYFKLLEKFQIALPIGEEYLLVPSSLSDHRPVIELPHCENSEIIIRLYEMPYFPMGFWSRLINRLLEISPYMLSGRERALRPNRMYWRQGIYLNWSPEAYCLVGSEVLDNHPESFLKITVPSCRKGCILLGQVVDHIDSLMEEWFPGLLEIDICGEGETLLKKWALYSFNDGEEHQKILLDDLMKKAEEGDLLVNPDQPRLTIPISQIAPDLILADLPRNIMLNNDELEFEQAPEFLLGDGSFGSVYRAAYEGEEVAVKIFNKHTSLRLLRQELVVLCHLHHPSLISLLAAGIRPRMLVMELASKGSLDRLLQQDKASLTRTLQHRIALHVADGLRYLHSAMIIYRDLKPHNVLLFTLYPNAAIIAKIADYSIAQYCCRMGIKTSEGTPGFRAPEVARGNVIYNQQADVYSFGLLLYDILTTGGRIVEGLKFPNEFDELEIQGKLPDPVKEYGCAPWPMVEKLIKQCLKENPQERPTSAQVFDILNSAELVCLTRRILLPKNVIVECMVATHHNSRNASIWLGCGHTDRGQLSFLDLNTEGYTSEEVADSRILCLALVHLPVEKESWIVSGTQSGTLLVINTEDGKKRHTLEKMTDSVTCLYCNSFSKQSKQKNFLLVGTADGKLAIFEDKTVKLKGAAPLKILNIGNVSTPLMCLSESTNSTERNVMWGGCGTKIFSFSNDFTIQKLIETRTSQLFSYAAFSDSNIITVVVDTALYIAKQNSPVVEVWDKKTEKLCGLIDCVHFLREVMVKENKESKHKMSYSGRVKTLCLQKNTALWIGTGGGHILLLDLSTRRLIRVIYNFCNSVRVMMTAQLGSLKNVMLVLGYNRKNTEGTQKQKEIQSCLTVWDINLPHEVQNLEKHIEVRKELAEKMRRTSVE
Summary of the method: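 Activity read as ADP-Glo luminescence, normalized to untreated solvent control, with IC50 (nM) fitted over 12 final compound levels (top 50 μM). Reaction: 2 h, 25° C, human LRRK2 G2019S 16 ng, ATP 25 μM, substrate 0.2 μg, in Tris-HCl pH 7.4 with MgCl2, BSA and DTT.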

[1] = target: T2, human GST-DYRK1A (full length) (Homo sapiens, UniProt Q13627); assay: GST-DYRK1A enzyme inhibition, ADP-Glo kinase assay; settings: read-out: DYRK1 IC50
T2 construct: purified human GST-DYRK1A (full length, Thermo scientifics) enzyme; GST; purchased Thermo scientifics
Summary of the method: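 ADP-Glo luminescence quantified kinase activity after a 1 h, 25° C reaction of 10 ng full-length GST-tagged human DYRK1A, substrate and 10 uM ATP in Tris-HCl buffer pH 7.4 with MgCl2, BSA and DTT. Triplicate IC50 values (nM) calculated relative to untreated solvent control.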

Chain of LRRK2 (Q5S007 970-2527 limits assumed): as the sequence (Q5S007 970-2527 G2019S limits assumed) above, with S1050G counted along it

Molecule COCCNc1cc(Nc2ccc(C(=O)N3CCOCC3)c3c2OCCO3)nc2[nH]cc(C(F)(F)F)c12 [Example 158, (8-((4-((2-methoxyethyl)amino)-3-(trifluoromethyl)-1H-pyrrolo[2,3-b]pyridin-6-yl)amino)-2,3-dihydrobenzo[b] [1,4]dioxin-5-yl)(morpholino) methanone] has an IC50 (LRRK2) of under 100 nM, an IC50 (human GST-CLK1 (129-end)) of under 100 nM and an IC50 (LRRK2 (G2019S)) of under 100 nM. The IC50 [1] was under 100 nM.
O=C(c1ccc(Nc2cc(NC3CCCCC3)c3c(C(F)(F)F)c[nH]c3n2)c2c1OCCO2)N1CCOCC1 [Example 154, (8-((4-(cyclohexylamino)-3-(trifluoromethyl)-1H-pyrrolo[2,3-b]pyridin-6-yl)amino)-2,3-dihydrobenzo[b] [1,4]dioxin-5-yl)(morpholino) methanone] gave an IC50 (LRRK2) of 301 to 1000 nM, an IC50 (human GST-CLK1 (129-end)) of 301 to 1000 nM and an IC50 (LRRK2 (G2019S)) of 301 to 1000 nM. It also gave an IC50 [1] of 301 to 1000 nM.
Molecule COc1cc(S(=O)(=O)N2CCC(N3CCOCC3)CC2)ccc1Nc1cc(NC2CCCCC2)c2c(C(F)(F)F)c[nH]c2n1 [Example 183, N^4-cyclohexyl-N^6-(2-methoxy-4-((4-morpholinopiperidin-1-yl)sulfonyl)phenyl)-3-(trifluoromethyl)-1H-pyrrolo[2,3-b]pyridine-4,6-diamine] has an IC50 (LRRK2) of 301 to 1000 nM, an IC50 (human GST-CLK1 (129-end)) of 301 to 1000 nM and an IC50 (LRRK2 (G2019S)) of 301 to 1000 nM. For the same molecule, the IC50 [1] was 301 to 1000 nM.
Molecule COCCNc1cc(Nc2ccc(S(C)(=O)=O)cc2OC)nc2[nH]cc(C(F)(F)F)c12 [Example 201, N^6-(2-methoxy-4-(methylsulfonyl)phenyl)-N^4-(2-methoxyethyl)-3-(trifluoromethyl)-1H-pyrrolo[2,3-b]pyridine-4,6-diamine] has an IC50 (LRRK2) of 101 to 300 nM, an IC50 (human GST-CLK1 (129-end)) of 301 to 1000 nM and an IC50 (LRRK2 (G2019S)) of 301 to 1000 nM. The IC50 [1] was 301 to 1000 nM.
In the case of COc1cc(S(C)(=O)=O)ccc1Nc1cc(NCCS(C)(=O)=O)c2c(C#N)c[nH]c2n1 [Example 119, 6-((2-methoxy-4-(methylsulfonyl)phenyl)amino)-4-((2-(methylsulfonyl)ethyl)amino)-1H-pyrrolo[2,3-b]pyridine-3-carbonitrile], the IC50 (LRRK2) is reported as under 100 nM, the IC50 (human GST-CLK1 (129-end)) is reported as 301 to 1000 nM and the IC50 (LRRK2 (G2019S)) is reported as under 100 nM. It also gave an IC50 [1] of 301 to 1000 nM.
COc1cc(S(C)(=O)=O)ccc1Nc1cc(NCC(C)C)c2cc[nH]c2n1 [Example 29, N^4-isobutyl-N^6-(2-methoxy-4-(methylsulfonyl)phenyl)-1H-pyrrolo[2,3-b]pyridine-4,6-diamine] gave an IC50 (LRRK2) of under 100 nM, an IC50 (human GST-CLK1 (129-end)) of 301 to 1000 nM and an IC50 (LRRK2 (G2019S)) of 101 to 300 nM. It also gave an IC50 [1] of 301 to 1000 nM.
CCNc1cc(Nc2ccc(P(C)(C)=O)cc2OC)nc2[nH]cc(C(F)(F)F)c12 [Example 209, (4-((4-(ethylamino)-3-(trifluoromethyl)-1H-pyrrolo[2,3-b]pyridin-6-yl)amino)-3-methoxyphenyl) dimethylphosphine oxide] showed an IC50 (LRRK2) of under 100 nM, an IC50 (human GST-CLK1 (129-end)) of 301 to 1000 nM and an IC50 (LRRK2 (G2019S)) of under 100 nM. For the same molecule, the IC50 [1] was 101 to 300 nM.
N#Cc1c[nH]c2nc(Nc3ccc(C(=O)N4CCC(N5CCOCC5)CC4)c4c3OCCO4)cc(NC3CCC3)c12 [Example 117, 4-(cyclobutylamino)-6-((8-(4-morpholinopiperidine-1-carbonyl)-2,3-dihydrobenzo[b] [1,4]dioxin-5-yl)amino)-1H-pyrrolo[2,3-b]pyridine-3-carbonitrile] was tested, and the IC50 (LRRK2) was under 100 nM, the IC50 (human GST-CLK1 (129-end)) was under 100 nM and the IC50 (LRRK2 (G2019S)) was under 100 nM. It also gave an IC50 [1] of 301 to 1000 nM.
COc1cc(S(C)(=O)=O)ccc1Nc1cc(NC2CC2)c2c(C(F)(F)F)c[nH]c2n1 [Example 187, N^4-cyclopropyl-N^6-(2-methoxy-4-(methylsulfonyl)phenyl)-3-(trifluoromethyl)-1H-pyrrolo[2,3-b]pyridine-4,6-diamine] gave an IC50 (LRRK2) of 301 to 1000 nM, an IC50 (human GST-CLK1 (129-end)) of 301 to 1000 nM and an IC50 (LRRK2 (G2019S)) of 301 to 1000 nM. For the same molecule, the IC50 [1] was 301 to 1000 nM.
Molecule CS(=O)(=O)CCNc1cc(Nc2ccc(C(=O)N3CCOCC3)c3c2OCCO3)nc2[nH]cc(C#N)c12 [Example 110, 4-((2-(methylsulfonyl)ethyl)amino)-6-((8-(morpholine-4-carbonyl)-2,3-dihydrobenzo[b] [1,4]dioxin-5-yl)amino)-1H-pyrrolo[2,3-b]pyridine-3-carbonitrile] has an IC50 (LRRK2) of under 100 nM, an IC50 (human GST-CLK1 (129-end)) of 101 to 300 nM and an IC50 (LRRK2 (G2019S)) of under 100 nM. For the same molecule, the IC50 [1] was 301 to 1000 nM.
For CCCNc1cc(Nc2ccc(S(C)(=O)=O)cc2OC)nc2[nH]cc(C(F)(F)F)c12 [Example 200, N^6-(2-methoxy-4-(methylsulfonyl)phenyl)-N^4-propyl-3-(trifluoromethyl)-1H-pyrrolo[2,3-b]pyridine-4,6-diamine], the IC50 (LRRK2) was 301 to 1000 nM, the IC50 (human GST-CLK1 (129-end)) was 301 to 1000 nM and the IC50 (LRRK2 (G2019S)) was 301 to 1000 nM. It also gave an IC50 [1] of 301 to 1000 nM.
In the case of CCNc1cc(Nc2ccc(C(=O)N3CCOCC3)c3c2OCC3)nc2[nH]cc(C(F)(F)F)c12 [Example 89, (7-((4-(ethylamino)-3-(trifluoromethyl)-1H-pyrrolo[2,3-b]pyridin-6-yl)amino)-2,3-dihydrobenzofuran-4-yl)(morpholino) methanone], the IC50 (LRRK2) is reported as under 100 nM, the IC50 (human GST-CLK1 (129-end)) is reported as under 100 nM and the IC50 (LRRK2 (G2019S)) is reported as under 100 nM. The IC50 [1] was under 100 nM.
Work on CS(=O)(=O)CCNc1cc(Nc2ccc(C(=O)N3CCC(N4CCOCC4)CC3)c3c2OCCO3)nc2[nH]cc(C(F)(F)F)c12 [Example 165, (8-((4-((2-(methylsulfonyl)ethyl)amino)-3-(trifluoromethyl)-1H-pyrrolo[2,3-b]pyridin-6-yl)amino)-2,3-dihydrobenzo[b] [1,4]dioxin-5-yl)(4-morpholinopiperidin-1-yl)methanone] yielded an IC50 (LRRK2) of under 100 nM, an IC50 (human GST-CLK1 (129-end)) of under 100 nM and an IC50 (LRRK2 (G2019S)) of under 100 nM. The IC50 [1] was under 100 nM.
Molecule CCNc1cc(Nc2ccc(C(=O)N3CCOCC3)c3c2OCO3)nc2[nH]cc(C(F)(F)F)c12 [Example 236, (7-((4-(ethylamino)-3-(trifluoromethyl)-1H-pyrrolo[2,3-b]pyridin-6-yl)amino)benzo[d][1,3]dioxol-4-yl)(morpholino) methanone] has an IC50 (LRRK2) of under 100 nM, an IC50 (human GST-CLK1 (129-end)) of under 100 nM and an IC50 (LRRK2 (G2019S)) of 101 to 300 nM. It also gave an IC50 [1] of under 100 nM.
CCCNc1cc(Nc2ccc(S(C)(=O)=O)cc2OC)nc2[nH]ccc12 [Example 27, N^6-(2-methoxy-4-(methylsulfonyl)phenyl)-N^4-propyl-1H-pyrrolo[2,3-b]pyridine-4,6-diamine] showed an IC50 (LRRK2) of under 100 nM, an IC50 (human GST-CLK1 (129-end)) of 301 to 1000 nM and an IC50 (LRRK2 (G2019S)) of under 100 nM. It also gave an IC50 [1] of 301 to 1000 nM.
CCNc1cc(Nc2ccc(S(C)(=O)=O)cc2OC)nc2[nH]ccc12 [Example 26, N^4-ethyl-N^6-(2-methoxy-4-(methylsulfonyl)phenyl)-1H-pyrrolo[2,3-b]pyridine-4,6-diamine] was tested, and the IC50 (LRRK2) was under 100 nM, the IC50 (human GST-CLK1 (129-end)) was 301 to 1000 nM and the IC50 (LRRK2 (G2019S)) was under 100 nM. The IC50 [1] was 301 to 1000 nM.
CCNc1cc(Nc2ccc(P(C)(=O)O)cc2OC)nc2[nH]ccc12 [Example 32, (4-((4-(ethylamino)-1H-pyrrolo[2,3-b]pyridin-6-yl)amino)-3-methoxyphenyl) (methyl)phosphinic acid] showed an IC50 (LRRK2) of 301 to 1000 nM, an IC50 (human GST-CLK1 (129-end)) of 301 to 1000 nM and an IC50 (LRRK2 (G2019S)) of 301 to 1000 nM. For the same molecule, the IC50 [1] was 301 to 1000 nM.
Molecule CCNc1cc(Nc2ccc(C(=O)N3CCOCC3)c3c2OCCO3)nc2[nH]cc(C#N)c12 [Example 107, 4-(ethylamino)-6-((8-(morpholine-4-carbonyl)-2,3-dihydrobenzo[b] [1,4]dioxin-5-yl)amino)-1H-pyrrolo[2,3-b]pyridine-3-carbonitrile] has an IC50 (LRRK2) of under 100 nM, an IC50 (human GST-CLK1 (129-end)) of 301 to 1000 nM and an IC50 (LRRK2 (G2019S)) of under 100 nM. For the same molecule, the IC50 [1] was 301 to 1000 nM.
